Measurements reported in ChEMBL document CHEMBL5053535, “Design, synthesis and biological evaluation of novel aminopyrazole- and 7-azaindole-based Nek1 inhibitors and their effects on zebrafish kidney development” (Bioorg Med Chem Lett, 2021).
≈ marks a conversion by molar mass, not a printed value.

Key:
Danio rerio [1] = species on record: Danio rerio; test: Toxicity in zebra fish embryos assessed as curved tail at 0.1 uM measured after 96 hrs; type: organism-based; conditions: zebrafish, in vivo
Danio rerio [2] = species on record: Danio rerio; test: Toxicity in zebra fish embryos assessed as enlarged yolk sac at 0.1 uM measured after 96 hrs; type: organism-based; conditions: zebrafish, in vivo
Danio rerio [3] = species on record: Danio rerio; test: Toxicity in zebra fish embryos assessed as adverse effects at >0.1 uM measured over 96 hrs; type: organism-based; conditions: zebrafish, in vivo
Danio rerio [4] = species on record: Danio rerio; test: Toxicity in zebra fish embryos assessed as phenotype changes at 0.01 to 2.5 uM measured after 96 hrs; type: organism-based; conditions: zebrafish, in vivo, dose 0.01-2.5 µM
[5] = Toxicity in zebra fish embryos assessed as lethality at 1.5 uM measured after 24 hrs relative to control; type: organism-based, Danio rerio; conditions: zebrafish, in vivo, read-out: Activity
Danio rerio [6] = species on record: Danio rerio; test: (§1) Toxicity in wild type zebra fish model of polycystic kidney disease assessed as increase in fluorescence intensity at 0.1 uM incubated for 48 hrs in presence of N-phenyl thiourea further treated with PT-yellow for 20 mins followed by dye washout and incubated in solution containing compound for 96 hrs by fluorescence imaging analysis; type: organism-based; conditions: zebrafish, in vivo
[7] = target: Cyclin-dependent kinase 2/cyclin E1 (Homo sapiens) (UniProt P24864+P24941); test: (§2) Inhibition of human recombinant full length C-terminal His6 tagged CDK2/ N-terminal GST-tagged Cyclin E expressed in baculovirus infected Sf21 insect cells using histone H1 as substrate assessed as residual activity at 1 uM pretreated for 20 mins followed by [33P]-ATP addition measured after 120 mins by radiometric hotspot kinase assay relative to control; conditions: time 140.0 min
[8] = target: T1, Serine/threonine-protein kinase Nek5 (Homo sapiens) (UniProt Q6P3R8); test: Inhibition of human recombinant NEK5 assessed as residual activity at 1 uM pretreated for 20 mins followed by [33P]-ATP addition measured after 120 mins by radiometric hotspot kinase assay relative to control; conditions: time 140.0 min
T1 sequence (whole entry): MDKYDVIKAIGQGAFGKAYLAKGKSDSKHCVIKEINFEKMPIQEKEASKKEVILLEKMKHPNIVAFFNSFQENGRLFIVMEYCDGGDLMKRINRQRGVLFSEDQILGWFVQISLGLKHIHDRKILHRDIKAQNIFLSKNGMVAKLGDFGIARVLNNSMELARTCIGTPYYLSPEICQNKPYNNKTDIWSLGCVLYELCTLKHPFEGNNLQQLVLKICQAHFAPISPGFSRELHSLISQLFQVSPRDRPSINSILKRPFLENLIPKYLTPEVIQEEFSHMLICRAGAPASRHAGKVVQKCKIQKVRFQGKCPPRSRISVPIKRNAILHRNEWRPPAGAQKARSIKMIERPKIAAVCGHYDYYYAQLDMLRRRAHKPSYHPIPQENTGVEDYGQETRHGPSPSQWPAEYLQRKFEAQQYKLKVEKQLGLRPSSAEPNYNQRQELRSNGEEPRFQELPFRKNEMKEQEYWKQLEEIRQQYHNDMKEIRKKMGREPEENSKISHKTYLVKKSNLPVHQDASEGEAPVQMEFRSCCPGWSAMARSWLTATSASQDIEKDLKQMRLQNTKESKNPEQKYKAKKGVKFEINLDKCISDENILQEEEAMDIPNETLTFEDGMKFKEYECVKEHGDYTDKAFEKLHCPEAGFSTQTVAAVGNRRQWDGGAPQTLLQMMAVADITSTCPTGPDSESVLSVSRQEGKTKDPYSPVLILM

Danio rerio [9] = species on record: Danio rerio; test: as §1, with “2.5” for “0.1”; type: organism-based; conditions: zebrafish, in vivo
[10] = target: Vascular endothelial growth factor receptor 2 (Homo sapiens) (UniProt P35968); test: Inhibition of human recombinant C-terminal His6 tagged VEGFR2 (789 to 1356 residues) expressed in baculovirus infected insect cells assessed as residual activity at 1 uM pretreated for 20 mins followed by [33P]-ATP addition measured after 120 mins by radiometric hotspot kinase assay relative to control; conditions: time 140.0 min
[11] = target: Wee1-like protein kinase (Homo sapiens) (UniProt P30291); test: Inhibition of human recombinant full length WEE1 expressed in insect cells using MBP as substrate assessed as residual activity at 1 uM pretreated for 20 mins followed by [33P]-ATP addition measured after 120 mins by radiometric hotspot kinase assay relative to control; conditions: time 140.0 min
[12] = Solubility of the compound in E3 medium with 0.2% DMSO by DAD-HPLC based shake flask method; type: physicochemical
Danio rerio [13] = species on record: Danio rerio; test: as §1, with “minor tubular volume expansion” for “increase in fluorescence intensity”, “2.5” for “0.1”; type: organism-based; conditions: zebrafish, in vivo
[14] = target: T2, Serine/threonine-protein kinase Nek1 (Homo sapiens) (UniProt Q96PY6); test: Inhibition of human NEK1 using myelin basic protein as substrate assessed as residual activity at 1 uM in presence of [gamma-33P]-ATP by radiometric hotspot kinase assay relative to control
T2 sequence (whole entry): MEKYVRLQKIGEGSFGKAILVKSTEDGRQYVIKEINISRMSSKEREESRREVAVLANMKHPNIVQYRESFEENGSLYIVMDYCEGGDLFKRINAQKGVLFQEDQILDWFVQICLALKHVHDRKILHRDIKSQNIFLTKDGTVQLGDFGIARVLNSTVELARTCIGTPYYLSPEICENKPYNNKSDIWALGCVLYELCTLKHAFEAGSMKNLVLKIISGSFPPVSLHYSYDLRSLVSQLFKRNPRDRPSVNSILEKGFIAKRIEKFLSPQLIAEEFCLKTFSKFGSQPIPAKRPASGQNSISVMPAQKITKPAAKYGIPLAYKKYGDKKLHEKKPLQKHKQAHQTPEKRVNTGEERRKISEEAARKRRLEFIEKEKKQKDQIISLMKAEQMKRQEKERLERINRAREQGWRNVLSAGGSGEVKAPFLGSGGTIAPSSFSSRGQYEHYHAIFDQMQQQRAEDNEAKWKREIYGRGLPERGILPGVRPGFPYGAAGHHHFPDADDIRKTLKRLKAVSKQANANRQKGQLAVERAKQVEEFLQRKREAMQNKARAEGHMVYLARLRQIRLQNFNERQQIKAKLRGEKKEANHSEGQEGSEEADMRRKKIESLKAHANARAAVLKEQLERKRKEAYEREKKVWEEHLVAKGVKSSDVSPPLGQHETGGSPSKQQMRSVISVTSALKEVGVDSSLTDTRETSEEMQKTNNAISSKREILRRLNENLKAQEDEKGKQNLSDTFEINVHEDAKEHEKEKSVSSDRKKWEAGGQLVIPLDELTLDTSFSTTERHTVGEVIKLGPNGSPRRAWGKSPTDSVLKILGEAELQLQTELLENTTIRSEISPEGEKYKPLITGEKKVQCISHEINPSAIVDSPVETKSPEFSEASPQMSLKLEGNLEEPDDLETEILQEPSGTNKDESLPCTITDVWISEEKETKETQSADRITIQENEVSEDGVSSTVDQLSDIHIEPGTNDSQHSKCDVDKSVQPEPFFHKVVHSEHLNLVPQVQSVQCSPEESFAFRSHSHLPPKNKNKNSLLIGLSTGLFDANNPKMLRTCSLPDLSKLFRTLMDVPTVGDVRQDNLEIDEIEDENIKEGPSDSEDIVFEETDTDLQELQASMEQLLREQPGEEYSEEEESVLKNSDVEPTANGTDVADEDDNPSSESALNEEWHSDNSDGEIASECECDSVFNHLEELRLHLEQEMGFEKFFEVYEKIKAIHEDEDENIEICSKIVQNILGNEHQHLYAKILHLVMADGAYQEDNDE

[15] = target: T3, Serine/threonine-protein kinase Nek1 (Homo sapiens, UniProt Q96PY6); test: Inhibition of human NEK1 using myelin basic protein as substrate assessed as residual activity in presence of [gamma-33P]-ATP by radiometric hotspot kinase assay relative to control
T3 sequence (Q96PY6 whole entry): T2 sequence (whole entry)

[16] = Stability of the compound in DMEM measured after 48 hrs by DAD-HPLC method; type: physicochemical; conditions: read-out: Stability
Danio rerio [17] = species on record: Danio rerio; test: Toxicity in zebra fish embryos assessed as overall survival at 0.01 to 2.5 uM measured after 96 hrs; type: organism-based; conditions: zebrafish, in vivo, dose 0.01-2.5 µM
[18] = target: T4, Serine/threonine-protein kinase Chk1 (Homo sapiens) (UniProt O14757); test: as §2, with “N-terminal His” for “C-terminal His6”, “CHK1” for “CDK2/ N-terminal GST-tagged Cyclin E”, “CHKtide” for “histone H1”; conditions: time 140.0 min
T4 sequence (whole entry): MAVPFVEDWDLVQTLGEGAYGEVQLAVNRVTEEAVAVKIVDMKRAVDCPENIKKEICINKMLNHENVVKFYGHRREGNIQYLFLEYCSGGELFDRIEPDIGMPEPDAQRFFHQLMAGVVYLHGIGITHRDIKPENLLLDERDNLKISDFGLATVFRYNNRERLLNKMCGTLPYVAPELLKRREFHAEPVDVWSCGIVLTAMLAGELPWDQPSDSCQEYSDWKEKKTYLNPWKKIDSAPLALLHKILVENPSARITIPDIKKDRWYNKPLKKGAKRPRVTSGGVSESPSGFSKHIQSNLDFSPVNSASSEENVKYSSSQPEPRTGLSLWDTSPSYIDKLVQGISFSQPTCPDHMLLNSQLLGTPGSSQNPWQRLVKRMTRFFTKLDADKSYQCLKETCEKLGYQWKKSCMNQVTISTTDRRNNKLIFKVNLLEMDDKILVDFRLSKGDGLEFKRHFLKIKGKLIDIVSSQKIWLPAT

[19] = Solubility of the compound in DMEM with 1% DMSO by DAD-HPLC based shake flask method; type: physicochemical

Sequence of Vascular endothelial growth factor receptor 2 (Homo sapiens) (P35968 whole entry, the tested form may be a part): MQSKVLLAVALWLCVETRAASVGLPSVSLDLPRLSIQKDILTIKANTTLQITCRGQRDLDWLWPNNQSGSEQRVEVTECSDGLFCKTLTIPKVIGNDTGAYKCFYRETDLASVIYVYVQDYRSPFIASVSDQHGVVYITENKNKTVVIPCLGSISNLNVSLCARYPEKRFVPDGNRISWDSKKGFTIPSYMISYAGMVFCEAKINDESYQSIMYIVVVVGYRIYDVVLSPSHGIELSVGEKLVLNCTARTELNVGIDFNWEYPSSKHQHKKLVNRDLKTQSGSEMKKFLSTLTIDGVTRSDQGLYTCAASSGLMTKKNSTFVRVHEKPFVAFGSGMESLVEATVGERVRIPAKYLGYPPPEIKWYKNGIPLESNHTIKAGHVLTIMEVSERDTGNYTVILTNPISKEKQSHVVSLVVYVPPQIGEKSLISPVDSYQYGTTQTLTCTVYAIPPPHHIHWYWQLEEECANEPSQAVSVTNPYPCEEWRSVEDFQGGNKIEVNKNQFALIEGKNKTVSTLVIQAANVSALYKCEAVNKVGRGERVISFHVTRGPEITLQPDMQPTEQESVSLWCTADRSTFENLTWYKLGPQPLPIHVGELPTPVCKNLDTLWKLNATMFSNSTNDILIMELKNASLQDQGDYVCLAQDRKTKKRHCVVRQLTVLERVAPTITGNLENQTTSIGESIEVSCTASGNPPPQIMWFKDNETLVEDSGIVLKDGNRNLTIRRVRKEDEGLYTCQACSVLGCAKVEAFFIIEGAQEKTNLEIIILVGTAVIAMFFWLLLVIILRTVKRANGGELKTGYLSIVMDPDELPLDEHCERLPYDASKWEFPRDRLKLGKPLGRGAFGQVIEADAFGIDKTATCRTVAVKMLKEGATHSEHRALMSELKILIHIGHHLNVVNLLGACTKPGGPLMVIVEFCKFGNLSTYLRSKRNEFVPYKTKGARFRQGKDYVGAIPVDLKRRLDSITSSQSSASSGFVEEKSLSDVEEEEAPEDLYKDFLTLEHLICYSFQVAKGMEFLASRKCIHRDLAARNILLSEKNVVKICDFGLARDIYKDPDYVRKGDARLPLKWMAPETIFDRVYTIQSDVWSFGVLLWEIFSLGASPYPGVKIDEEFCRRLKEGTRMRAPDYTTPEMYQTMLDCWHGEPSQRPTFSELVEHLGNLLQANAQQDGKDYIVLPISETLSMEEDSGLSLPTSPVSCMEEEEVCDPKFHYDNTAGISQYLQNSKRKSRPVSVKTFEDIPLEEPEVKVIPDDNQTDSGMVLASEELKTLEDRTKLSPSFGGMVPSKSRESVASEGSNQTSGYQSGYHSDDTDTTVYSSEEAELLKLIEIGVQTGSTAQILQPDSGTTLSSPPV
Sequence of Wee1-like protein kinase (Homo sapiens) (P30291 whole entry, looked up): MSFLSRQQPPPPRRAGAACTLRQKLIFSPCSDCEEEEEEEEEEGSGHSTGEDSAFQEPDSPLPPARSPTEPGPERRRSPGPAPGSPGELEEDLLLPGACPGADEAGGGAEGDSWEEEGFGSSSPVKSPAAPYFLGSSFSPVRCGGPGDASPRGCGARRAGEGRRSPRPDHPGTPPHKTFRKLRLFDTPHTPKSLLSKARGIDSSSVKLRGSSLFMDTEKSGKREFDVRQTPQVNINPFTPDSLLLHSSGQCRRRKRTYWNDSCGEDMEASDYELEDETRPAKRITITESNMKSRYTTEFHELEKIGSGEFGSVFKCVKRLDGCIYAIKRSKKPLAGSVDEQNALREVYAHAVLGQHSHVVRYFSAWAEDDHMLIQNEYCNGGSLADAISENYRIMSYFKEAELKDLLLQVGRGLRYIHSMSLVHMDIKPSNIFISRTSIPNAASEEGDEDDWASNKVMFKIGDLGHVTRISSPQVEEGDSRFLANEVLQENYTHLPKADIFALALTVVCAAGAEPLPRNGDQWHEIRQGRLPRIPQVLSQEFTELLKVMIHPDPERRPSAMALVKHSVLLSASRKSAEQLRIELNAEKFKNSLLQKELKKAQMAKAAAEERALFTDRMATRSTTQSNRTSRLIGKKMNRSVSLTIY

Row | SMILES | Activity (Danio rerio [1]) | Activity (Danio rerio [2]) | Activity (Danio rerio [3]) | Activity (Danio rerio [4]) | mortality at 24 h, 1.5 µM [5] [%] | Activity (Danio rerio [6]) | Activity [7] [%] | Activity [8] [%] | Activity (Danio rerio [9]) | Activity [10] [%] | Activity [11] [%] | solubility [12] [µM] | Activity (Danio rerio [13]) | Activity [14] [%] | IC50 [15] [nM] | remaining at 48 h [16] [%] | Activity (Danio rerio [17]) | Activity [18] [%] | solubility [19] [µM]
1 | Cc1nc(N)sc1-c1ccnc(Nc2cccc([N+](=O)[O-])c2)n1 | Toxic | Toxic | Toxic | Non-Toxic | 100 | Toxic | – | – | – | – | – | – | – | – | – | – | – | – | –
2 | COC(=O)c1cccc(-c2cnc3[nH]cc(-c4ccncc4)c3c2)c1 | – | – | – | – | – | – | 1.8 | 58.5 | Toxic | 79.4 | 78.9 | 30.9 (≈ 10.2 µg/mL) | Toxic | 13 | 140 | 88 | Non-Toxic | 85 | 34 (≈ 11.2 µg/mL)
